According to US11058668B2 (EIDOS THERAPEUTICS, INC., priority 2018, dated 2021):
Where “and” joins values, the source holds several entries; their conditions need not be identical. Equal values may be shown once. Read-outs that look alike come from different tables or passages of the source.

What was measured:
[1] = Phase 1 (AG10-001) single ascending dose pharmacokinetics; assay type: in vivo, human; details: for Cmax / Tmax / concentration at 24 hr / AUC(0-t) / AUC(0-inf) / half-life: human, plasma; for concentration at 24 hr: read-out: C24
Method: Quantitation was performed using a weighted 1/x^2 linear least squares regression analysis generated from calibration standards prepared on the day of extraction.
One of the SAD cohorts received two 300 mg doses, one under fasted conditions and the other following a high fat test meal after an appropriate washout period.

TTR [2] = biological target: T1, TTR (Canis lupus familiaris, UniProt A0A8I3NFK0); experiment: 7-day repeat oral dosing in dogs, TTR occupancy by FPE; assay type: in vivo, beagle dog
T1 construct: from tissue; host or cells: serum of orally dosed beagle dogs
Method: FPE assay for binding TTR in buffer and human or dog serum. […] The FPE probe is a thioester TTR ligand that is not fluorescent by itself, however upon binding to the T4 binding site of TTR it covalently modifies lysine 15 (K15), creating a fluorescent conjugate. Ligands that bind to the T4 site of TTR will decrease FPE probe binding as observed by lower fluorescence. The FPE assay was also adapted for use with dog serum. FPE with TTR in buffer: An aliquot of 98 μL of TTR in PBS (pH 7.4, final concentration: 2.5 μM) was mixed with 1 μL of test compounds (2.5 μM) and 1 μL of FPE probe (0.18 mM stock solution in DMSO: final concentration: 1.8 μM). The change in fluorescence (λex=328 nm and λem=384 nm) were monitored using a microplate spectrophotometer reader (SpectraMax M5) for 6 hr at rt. […] The change in fluorescence (λex=328 nm and λem=384 nm) were monitored using a microplate spectrophotometer reader (SpectraMax M5) for 6 hr at rt.
Blood (approximately 1.5 mL) was collected from a jugular vein into serum separator tubes on study day 1 (predose D1), pre-dose study day 7 (predose D7), and at 1 hr post-dose study day 7 (postdose D7). These serum samples were analyzed for their TTR occupancy using the FPE assay described above.

TTR [3] = biological target: T2, TTR (Macaca fascicularis, UniProt Q8HXW1); experiment: Single dose study in monkeys, FPE assay on serum; assay type: in vivo, cynomolgus monkey
T2 construct: from tissue; host or cells: serum of dosed male cynomolgus monkeys
Method: There was a washout period of two weeks between the two phases. Blood samples were collected at pre-dose and at approximately 0.083 (IV only), 0.25, 0.5, 1, 2, 4, 8, 12, 24, 48, 72 and 96 hours post-dose. Plasma samples were assayed for AG10 and AG10 acylglucuronide and serum was tested in FPE assay.

tetrameric TTR = biological target: T3, tetrameric TTR (Homo sapiens, UniProt P02766, V50M); experiment: Phase 2 study, fluorescence probe (FPE) assay ex vivo; assay type: in vivo; details: individual with V30M TTR mutation, 800 mg b.i.d.
T3 construct: monitoring TTR serum concentrations in trial participants; from tissue; host or cells: serum / plasma of ATTR-CM patients
Method: Aliquots of each serum sample are plated in 96 well plates. The fluorescence changes (λex=328 nm and λem=384 nm) after addition of probe are monitored every 15 min using a fluorescent capable microplate for 6 hr at RT.
(§1) The phase 2 clinical study was performed essentially as described in Example 3. A total of 49 patents were included instead of 45: 16 receiving 400 mg bid; 16 receiving 800 mg bid; and 17 receiving placebo.
(§2) TTR stabilization was measured ex vivo using the FPE and Western blot assays described at the beginning of the examples section. TTR stabilization was measured in vivo by monitoring TTR serum concentrations in trial participants.

[4] = Population PK analysis, effect of disease state and diuretics; assay type: in vivo, human
Description: Thus, the final model retained disease state on the central volume of distribution.
Of the 17 subjects who were on placebo, 14 were on furosemide or torsemide.

[5] = pKa values of stabilizers; assay type: physicochemical; details: carboxylic acid group
[6] = biological target: human serum albumin (HSA) (Homo sapiens, UniProt P02768); experiment: biochemical
Method: (§3) Isothermal Titration Calorimetry (ITC). Binding experiments were performed using MicroCal PEAQ-ITC at 25° C. […] 19 injections of ligand (2.0 μL each) were injected into the ITC cell (at 25° C.) to the point that TTR was fully saturated with ligand. Calorimetric data were plotted and fitted using the standard single-site binding model.

TTR [7] = biological target: T4, TTR (Homo sapiens, UniProt P02766); experiment: Isothermal titration calorimetry (ITC) with TTR in buffer; details: 25° C.
Method: as §3

TTR [8] = biological target: T4, TTR; experiment: Phase 2 study in ATTR-CM patients, serum TTR concentration (ARUP Prealbumin assay); assay type: in vivo; parameters: monitoring TTR serum concentrations in trial participants; from tissue; host or cells: serum / plasma of ATTR-CM patients; details: WT
Method: Screening and randomization will be followed by a 28-day blinded, placebo-controlled treatment period. Approximately 45 subjects are planned to enroll in the Phase 2 study.
An ARUP Prealbumin assay was also used to analyze TTR blood serum concentration in the MAD cohorts tested. ARUP analyzes samples for prealbumin using the prealbumin reagent kit provided by Roche Diagnostics and run on the Roche Diagnostics c702 module. Lowest reportable limit is 3 mg/dL.
as §1, §2

[9] = both sexes, oral, 300 mg, SAD Cohort 3, 300 mg, Fasted, geometric mean
[10] = both sexes, oral, 300 mg, SAD Cohort 3, 300 mg, Fed (high fat test meal), geometric mean
[11] = both sexes, po, 50 mg, single oral dose 50 mg AG10 HCl, healthy subjects, geometric mean ± SD
[12] = both sexes, po, 150 mg, single oral dose 150 mg AG10 HCl, healthy subjects, geometric mean ± SD
[13] = both sexes, po, 300 mg, single oral dose 300 mg AG10 HCl, healthy subjects, geometric mean ± SD
[14] = both sexes, po, 800 mg, single oral dose 800 mg AG10 HCl, healthy subjects, geometric mean ± SD

Sequence of human serum albumin (HSA) (P02768 25-609): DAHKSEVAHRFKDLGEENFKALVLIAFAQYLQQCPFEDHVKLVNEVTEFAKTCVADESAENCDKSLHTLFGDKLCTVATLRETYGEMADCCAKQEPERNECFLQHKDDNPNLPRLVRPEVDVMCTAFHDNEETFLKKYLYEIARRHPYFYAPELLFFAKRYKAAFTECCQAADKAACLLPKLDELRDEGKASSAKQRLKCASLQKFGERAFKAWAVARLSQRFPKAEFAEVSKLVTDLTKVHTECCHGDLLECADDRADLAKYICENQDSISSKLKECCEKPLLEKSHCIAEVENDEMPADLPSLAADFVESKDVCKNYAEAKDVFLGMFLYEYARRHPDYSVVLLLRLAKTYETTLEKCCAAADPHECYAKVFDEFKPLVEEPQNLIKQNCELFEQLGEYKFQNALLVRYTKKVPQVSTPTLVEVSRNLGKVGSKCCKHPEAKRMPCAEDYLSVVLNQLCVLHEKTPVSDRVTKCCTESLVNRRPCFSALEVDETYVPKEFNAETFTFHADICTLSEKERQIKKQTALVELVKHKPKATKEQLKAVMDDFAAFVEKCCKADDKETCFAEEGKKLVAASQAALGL

Cc1n[nH]c(C)c1CCCOc1cc(C(=O)O)ccc1F [AG10, 3-(3-(3,5-dimethyl-1H-pyrazol-4-yl)propoxy)-4-fluorobenzoic acid]
food effect on the pharmacokinetics ([1]; 300 mg, fed versus fasted state): minimal food effect | mean Tmax ([1]; SAD cohorts 1-4, 50-800 mg AG10 HCl oral): under one | Cmax [1, 9]: 15.1 µM | Tmax [1, 9]: 0.707 h | concentration at 24 hr [1, 9]: 2.19 µM | Cmax [1, 10]: 10.2 µM | Tmax [1, 10]: 1.59 h | AUC(0-t) ([1]; both sexes, oral, 300 mg, SAD Cohort 3, 300 mg, Fed (high fat test meal), geometric mean, read-out: AUC0-24): 111 µM·h | concentration at 24 hr [1, 10]: 2.69 µM | AUC(0-inf) ([1]; both sexes, po, 50 mg): 97.1 ± 12.1 µM·h | Cmax [1, 11]: 7.2 ± 0.72 µM | Tmax [1, 11]: 0.891 ± 0.736 h | AUC(0-t) ([1]; both sexes, po, 50 mg, single oral dose 50 mg AG10 HCl, healthy subjects, geometric mean ± SD, read-out: AUC0-24): 58.9 ± 4.09 µM·h | AUC(0-t) ([1]; both sexes, po, 50 mg, single oral dose 50 mg AG10 HCl, healthy subjects, geometric mean ± SD, read-out: AUClast): 95 ± 11.8 µM·h | concentration at 24 hr [1, 11]: 1.05 ± 0.13 µM | half-life ([1]; both sexes, po, 50 mg, read-out: T1/2 (converted)): 25 ± 2.91 h | AUC(0-inf) ([1]; both sexes, po, 150 mg): 168 ± 46.8 µM·h | Cmax [1, 12]: 11.3 ± 4.76 µM | Tmax [1, 12]: 0.849 ± 0.97 h | AUC(0-t) ([1]; both sexes, po, 150 mg, single oral dose 150 mg AG10 HCl, healthy subjects, geometric mean ± SD, read-out: AUC0-24): 93 ± 16.8 µM·h | AUC(0-t) ([1]; both sexes, po, 150 mg, single oral dose 150 mg AG10 HCl, healthy subjects, geometric mean ± SD, read-out: AUClast): 166 ± 46 µM·h | concentration at 24 hr [1, 12]: 1.78 ± 0.465 µM | half-life ([1]; both sexes, po, 150 mg, read-out: T1/2 (converted)): 25.1 ± 3.58 h | AUC(0-inf) ([1]; both sexes, po, 300 mg): 191 ± 77 µM·h | Cmax [1, 13]: 15.1 ± 3.6 µM | Tmax [1, 13]: 0.707 ± 0.274 h | AUC(0-t) ([1]; both sexes, po, 300 mg, single oral dose 300 mg AG10 HCl, healthy subjects, geometric mean ± SD, read-out: AUC0-24): 100 ± 9.76 µM·h | AUC(0-t) ([1]; both sexes, po, 300 mg, single oral dose 300 mg AG10 HCl, healthy subjects, geometric mean ± SD, read-out: AUClast): 186 ± 73.8 µM·h | concentration at 24 hr [1, 13]: 2.19 ± 0.435 µM | half-life ([1]; both sexes, po, 300 mg, read-out: T1/2 (converted)): 22 ± 5.94 h | AUC(0-inf) ([1]; both sexes, po, 800 mg): 414 ± 87.5 µM·h | Cmax [1, 14]: 37.8 ± 11.3 µM | Tmax [1, 14]: 0.794 ± 0.258 h | AUC(0-t) ([1]; both sexes, po, 800 mg, single oral dose 800 mg AG10 HCl, healthy subjects, geometric mean ± SD, read-out: AUC0-24): 176 ± 27.7 µM·h | AUC(0-t) ([1]; both sexes, po, 800 mg, single oral dose 800 mg AG10 HCl, healthy subjects, geometric mean ± SD, read-out: AUClast): 410 ± 81.7 µM·h | concentration at 24 hr [1, 14]: 4.51 ± 0.565 µM | half-life ([1]; both sexes, po, 800 mg, read-out: T1/2 (converted)): 26.8 ± 8.48 h | half-life ([1]; both sexes, po, read-out: elimination half-life): 22 to 27 h | AUC(0-t) ([1]; oral, 300 mg, SAD Cohort 3, 300 mg, Fasted, geometric mean, read-out: AUC0-24): 99.6 µM·h | TTR occupancy at the steady state trough (TTR [2]; 50, 100, 200 mg/kg/d oral, day 7 pre-dose): 81-94% | TTR occupancy at steady state Cmax (TTR [2]; all AG10 treated groups, day 7 post-dose (1 hr)): > 97% | binding to TTR in serum (FPE assay) (TTR [3]; 5 mg/kg per oral, 3 male monkeys): effectively binds to TTR in monkey serum | TTR stabilization versus dose (FPE assay) (TTR [3]; orally administered): stabilized TTR in a dose dependent manner | target engagement at day 14 (FPE) (tetrameric TTR): near complete target engagement | circulating trough concentration that is a suitable target based on stabilization of TTR ([4]; Phase 1 MAD 3 (800 mg Q12h) and Phase 2 ATTR-CM patients): ~8 µM | effect of commonly used diuretics on exposure ([4]; furosemide or torsemide co-administration): do not interfere with exposure | clearance ([4]; healthy adult volunteers in Phase 1 vs subjects in Phase 2, patient status or diuretics (furosemide/torsemide)): No difference in clearance | volume of distribution ([4]; subjects on furosemide/torsemide compared to healthy adult volunteers): lower | pKa [5]: 4.13 | Kd [6]: ~8 µM | ΔH (TTR [7]): -13.60 kcal/mol and -13.6 kcal/mol | Blood Serum TTR Concentration, Average Change (TTR [8]; 400 mg b.i.d.): 32% | Blood Serum TTR Concentration, Average Change (TTR [8]; 800 mg b.i.d.): 35%
